DC50 data for 9 compounds are collected here from patent US20230083015A1, “SMALL MOLECULE DEGRADERS OF STAT3” (THE REGENTS OF THE UNIVERSITY OF MICHIGAN, priority 2019, published 2023).

Each structure is given as a SMILES string. Like-named read-outs stand apart in the source and are kept apart here.

As a reminder, the DC50 is the concentration giving 50% degradation.

Test [1] deals with STAT3 (Homo sapiens, UniProt P40763). As to the kind of experiment: Estimated DC50 for STAT3 degradation in MOLM-16 cells (immunoblotting). Further details: In vitro cultured cells or xenograft tumors were lysed; endogenous in cells; host or cells: MOLM-16. The test is classed as cell-based. How it is done:
(§1) FIG. 62 is a series of four images showing the fluorescent immunoblotting analysis of STAT1 and STAT3 protein in Molm-16 cells after treatment for 4 h with Cpd. Nos. 331, 296, 361, 362, 363, 364, 365, 366, and 367 at the concentrations indicated.
(§2) In vitro cultured cells or xenograft tumors were lysed 1× Cell Lysis Buffer (Cell Signaling Technology, #9803), resolved by SDS-PAGE NuPAGE gel (Thermo Fisher Scientific), and transferred to a PVDF membrane (Bio Rad). For chemiluminescence immunoblotting, membranes were blocked for 1 h using 5% Blotting-Grade Blocker (#1706404, Bio Rad) in 1× Tris-buffered saline with Tween 20 (TBST, Pierce). Antibodies used were: rabbit mAbs for STAT3 (Cell Signaling Technology, #4368, #12640) and p-STAT3 (Y705) (Cell Signaling Technology, #9245, #52075). HRP conjugated goat anti-rabbit IgG (H+L) (#A27036) secondary antibodies was from Thermo Fisher Scientific. GAPDH (Santa Cruz Technology, sc-47724HRP) and actin (Santa Cruz Technology, sc-8432HRP, sc-47778HRP) were loading controls. For fluorescent immunoblotting, membranes were blocked using Odyssey TBS Blocker Buffer (LI-COR). IRDye 680RD and 800CW Dye-labeled secondary antibodies (LI-COR) were used. The washed membranes were scanned using Odyssey CLx imager (LI-COR). The intensity of Western blot signaling was quantitated using the Odyssey software.
(§3) The estimated DC50 in MOLM-16 cells of representative Compounds of the Disclosure against STAT3 and STAT1 is provide in Table 5.

The target of test [2] is T1, STAT1 (Homo sapiens, UniProt P42224).
T1 construct: In vitro cultured cells or xenograft tumors were lysed; endogenous in cells; host or cells: MOLM-16
T1 sequence (P42224 1-750): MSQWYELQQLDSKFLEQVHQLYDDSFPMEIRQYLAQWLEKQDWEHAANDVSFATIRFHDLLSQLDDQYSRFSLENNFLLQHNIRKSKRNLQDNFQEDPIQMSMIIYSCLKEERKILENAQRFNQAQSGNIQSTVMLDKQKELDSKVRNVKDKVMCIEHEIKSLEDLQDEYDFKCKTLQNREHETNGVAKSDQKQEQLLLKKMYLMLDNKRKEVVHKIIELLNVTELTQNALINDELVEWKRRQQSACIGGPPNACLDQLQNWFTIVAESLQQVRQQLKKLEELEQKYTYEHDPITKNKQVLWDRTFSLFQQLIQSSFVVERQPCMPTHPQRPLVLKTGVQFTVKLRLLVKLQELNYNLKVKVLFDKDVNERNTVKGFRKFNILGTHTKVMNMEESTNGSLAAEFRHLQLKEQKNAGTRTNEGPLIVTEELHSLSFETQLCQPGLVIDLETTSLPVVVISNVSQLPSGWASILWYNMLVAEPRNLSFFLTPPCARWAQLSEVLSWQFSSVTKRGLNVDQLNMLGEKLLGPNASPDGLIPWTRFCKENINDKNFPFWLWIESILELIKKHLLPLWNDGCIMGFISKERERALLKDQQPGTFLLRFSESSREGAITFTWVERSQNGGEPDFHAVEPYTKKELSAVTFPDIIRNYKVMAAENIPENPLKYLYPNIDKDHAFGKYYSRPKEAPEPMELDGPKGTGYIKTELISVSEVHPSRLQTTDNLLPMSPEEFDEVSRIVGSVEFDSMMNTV
The experiment in a line: Estimated DC50 for STAT1 degradation in MOLM-16 cells (immunoblotting). The test is classed as cell-based. As for the experimental part: as §1, §2, §3

Setting [3] is: MOLM-16, 4 h; read-out: Estimated DC50 STAT3.
The mark [4] stands for this setting: MOLM-16, 4 h; read-out: Estimated DC50 STAT1.

STAT3, sequence (P40763 whole entry): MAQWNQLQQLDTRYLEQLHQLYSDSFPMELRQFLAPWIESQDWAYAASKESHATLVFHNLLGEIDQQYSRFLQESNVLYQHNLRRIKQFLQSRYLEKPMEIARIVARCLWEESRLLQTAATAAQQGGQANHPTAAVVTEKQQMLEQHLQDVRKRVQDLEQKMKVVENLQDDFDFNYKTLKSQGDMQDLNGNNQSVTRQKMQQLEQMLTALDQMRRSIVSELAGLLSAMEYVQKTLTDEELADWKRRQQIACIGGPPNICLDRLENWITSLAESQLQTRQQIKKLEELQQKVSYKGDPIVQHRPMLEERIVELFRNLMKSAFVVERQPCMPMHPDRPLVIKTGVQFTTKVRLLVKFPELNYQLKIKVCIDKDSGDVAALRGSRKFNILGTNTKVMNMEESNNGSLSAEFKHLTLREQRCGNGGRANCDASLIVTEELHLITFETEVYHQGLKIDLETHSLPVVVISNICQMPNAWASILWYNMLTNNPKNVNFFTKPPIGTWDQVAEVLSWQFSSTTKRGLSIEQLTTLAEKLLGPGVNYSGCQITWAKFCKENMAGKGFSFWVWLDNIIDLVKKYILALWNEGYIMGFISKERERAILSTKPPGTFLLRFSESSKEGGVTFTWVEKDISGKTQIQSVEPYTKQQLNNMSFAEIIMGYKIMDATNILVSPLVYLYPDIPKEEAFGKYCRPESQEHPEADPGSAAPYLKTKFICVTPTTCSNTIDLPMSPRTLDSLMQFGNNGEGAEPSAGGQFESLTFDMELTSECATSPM

For `NC(=O)CC[C@H](NC(=O)[C@@H]1CC[C@@H]2CCN(C(=O)CCCCCC#Cc3cccc4c3CN(C3CCC(=O)NC3=O)C4=O)C[C@H](NC(=O)c3cc4cc(C(F)(F)P(=O)(O)O)ccc4s3)C(=O)N21)C(=O)NC(Cc1ccccc1)Cc1ccccc1` (stereo partly drawn) [Cpd. No. 349, ((2-(((5S,8S,10aR)-8-(((S)-5-amino-1-((1,3-diphenylpropan-2-yl)amino)-1,5-dioxopentan-2-yl)carbamoyl)-3-(8-(2-(2,6-dioxopiperidin-3-yl)-1-oxoisoindolin-4-yl)oct-7-ynoyl)-6-oxodecahydropyrrolo[1,2-a][1,5]diazocin-5-yl)carbamoyl)benzo[b]thiophen-5-yl)difluoromethyl) phosphonic acid], the half-maximal degradation concentration (DC50) in test [1] (setting [3]) is 200 nM.

With `CCN1CC[C@H]2CC[C@@H](C(=O)N[C@@H](CCC(N)=O)C(=O)N[C@@H](Cc3ccc(S(=O)(=O)c4ccccc4)cc3)C(=O)N3CCC(CCC#Cc4cccc5c4CN(C4CCC(=O)NC4=O)C5=O)CC3)N2C(=O)[C@@H](NC(=O)c2cc3cc(C(F)(F)P(=O)(O)O)ccc3s2)C1` (some centres unmarked) [Cpd. No. 352], the half-maximal degradation concentration (DC50) in test [1] (read-out: Estimated DC50 STAT3; MOLM-16, 4 h) was less than 250 nM; in test [2] (read-out: Estimated DC50 STAT1; MOLM-16, 4 h) it was 250 nM.

Consider `CCN1CC[C@H]2CC[C@@H](C(=O)N[C@@H](CCC(N)=O)C(=O)N[C@@H](Cc3ccc(S(=O)(=O)C4CC4)cc3)C(=O)N3CCC(CCC#Cc4cccc5c4CN(C4CCC(=O)NC4=O)C5=O)CC3)N2C(=O)[C@@H](NC(=O)c2cc3cc(C(F)(F)P(=O)(O)O)ccc3s2)C1` (stereo partly drawn) [Cpd. No. 353, ((2-(((5S,8S,10aR)-8-(((2S)-5-amino-1-(((2S)-3-(4-(cyclopropylsulfonyl)phenyl)-1-(4-(4-(2-(2,6-dioxopiperidin-3-yl)-1-oxoisoindolin-4-yl)but-3-yn-1-yl)piperidin-1-yl)-1-oxopropan-2-yl)amino)-1,5-dioxopentan-2-yl)carbamoyl)-3-ethyl-6-oxodecahydropyrrolo[1,2-a][1,5]diazocin-5-yl)carbamoyl)benzo[b]thiophen-5-yl)difluoromethyl)phosphonic Acid], for which the values for the DC50 in test [1] (setting [3]) and in test [2] (setting [4]) were less than 250 nM and 500 nM, respectively.

In the case of `CCN1CC[C@H]2CC[C@@H](C(=O)N[C@@H](CCC(N)=O)C(=O)N[C@@H](Cc3ccc(NS(=O)(=O)c4ccc(C)cc4)cc3)C(=O)N3CCC(CCC#Cc4cccc5c4CN(C4CCC(=O)NC4=O)C5=O)CC3)N2C(=O)[C@@H](NC(=O)c2cc3cc(C(F)(F)P(=O)(O)O)ccc3s2)C1` (stereo partly drawn) [Cpd. No. 354, ((2-(((5S,8S,10aR)-8-(((2S)-5-amino-1-(((2S)-1-(4-(4-(2-(2,6-dioxopiperidin-3-yl)-1-oxoisoindolin-4-yl)but-3-yn-1-yl)piperidin-1-yl)-3-(4-((4-methylphenyl)sulfonamido)phenyl)-1-oxopropan-2-yl)amino)-1,5-dioxopentan-2-yl)carbamoyl)-3-ethyl-6-oxodecahydropyrrolo[1,2-a][1,5]diazocin-5-yl)carbamoyl)benzo[b]thiophen-5-yl)difluoromethyl)phosphonic Acid], the DC50 was less than 250 nM in test [1] (setting [3]) and 250 nM in test [2] (setting [4]).

`CCN1CC[C@H]2CC[C@@H](C(=O)N[C@@H](CCC(N)=O)C(=O)N[C@@H](Cc3ccc(NS(=O)(=O)c4ccc(C5CCCCC5)cc4)cc3)C(=O)N3CCC(CCC#Cc4cccc5c4CN(C4CCC(=O)NC4=O)C5=O)CC3)N2C(=O)[C@@H](NC(=O)c2cc3cc(C(F)(F)P(=O)(O)O)ccc3s2)C1` (stereo partly drawn) [Cpd. No. 357, ((2-(((5S,8S,10aR)-8-(((2S)-5-amino-1-(((2S)-3-(4-((4-cyclohexylphenyl)sulfonamido)phenyl)-1-(4-(4-(2-(2,6-dioxopiperidin-3-yl)-1-oxoisoindolin-4-yl)but-3-yn-1-yl)piperidin-1-yl)-1-oxopropan-2-yl)amino)-1,5-dioxopentan-2-yl)carbamoyl)-3-ethyl-6-oxodecahydropyrrolo[1,2-a][1,5]diazocin-5-yl)carbamoyl)benzo[b]thiophen-5-yl)difluoromethyl) phosphonic acid]: the values for the DC50 in test [1] (setting [3]) and in test [2] (setting [4]) were 500 nM and greater than 1000 nM, respectively.

Regarding `CCN1CC[C@H]2CC[C@@H](C(=O)N[C@@H](CCC(N)=O)C(=O)N[C@@H](Cc3ccc(C(=O)NC4CCOCC4)cc3)C(=O)N3CCC(CCC#Cc4cccc5c4CN(C4CCC(=O)NC4=O)C5=O)CC3)N2C(=O)[C@@H](NC(=O)c2cc3cc(C(F)(F)P(=O)(O)O)ccc3s2)C1` (stereo partly drawn) [Cpd. No. 359, ((2-(((5S,8S,10aR)-8-(((2S)-5-amino-1-(((2S)-1-(4-(4-(2-(2,6-dioxopiperidin-3-yl)-1-oxoisoindolin-4-yl)but-3-yn-1-yl)piperidin-1-yl)-1-oxo-3-(4-((tetrahydro-2H-pyran-4-yl)carbamoyl)phenyl)propan-2-yl)amino)-1,5-dioxopentan-2-yl)carbamoyl)-3-ethyl-6-oxodecahydropyrrolo[1,2-a][1,5]diazocin-5-yl)carbamoyl)benzo[b]thiophen-5-yl)difluoromethyl)phosphonic Acid], the figures for the DC50 in test [1] (setting [3]) and in test [2] (setting [4]) were 1000 nM and greater than 1000 nM, respectively.

As for `CCN1CC[C@H]2CC[C@@H](C(=O)N[C@@H](CCC(N)=O)C(=O)N[C@@H](Cc3ccc(C(=O)NCC4CCN(C)CC4)cc3)C(=O)N3CCC(CCC#Cc4cccc5c4CN(C4CCC(=O)NC4=O)C5=O)CC3)N2C(=O)[C@@H](NC(=O)c2cc3cc(C(F)(F)P(=O)(O)O)ccc3s2)C1` (stereo partly drawn) [Cpd. No. 360, ((2-(((5S,8S,10aR)-8-(((2S)-5-amino-1-(((2S)-1-(4-(4-(2-(2,6-dioxopiperidin-3-yl)-1-oxoisoindolin-4-yl)but-3-yn-1-yl)piperidin-1-yl)-3-(4-(((1-methylpiperidin-4-yl)methyl)carbamoyl)phenyl)-1-oxopropan-2-yl)amino)-1,5-dioxopentan-2-yl)carbamoyl)-3-ethyl-6-oxodecahydropyrrolo [1,2-a][1,5]diazocin-5-yl)carbamoyl)benzo [b]thiophen-5-yl)difluoromethyl) phosphonic acid], the DC50 in test [1] (setting [3]) and in test [2] (setting [4]) was greater than 1000 nM each time.

Regarding `COC(=O)N1CC[C@H]2CC[C@@H](C(=O)N[C@@H](CCC(N)=O)C(=O)N[C@@H](Cc3ccc(C(C)(C)C)cc3)C(=O)N3CCC(CCC#Cc4cccc5c4CN(C4CCC(=O)NC4=O)C5=O)CC3)N2C(=O)[C@@H](NC(=O)c2cc3cc(C(F)(F)P(=O)(O)O)ccc3s2)C1` (stereo partly drawn) [Cpd. No. 361, ((2-(((5S,8S,10aR)-8-(((2S)-5-amino-1-(((2S)-3-(4-(tert-butyl)phenyl)-1-(4-(4-(2-(2,6-dioxopiperidin-3-yl)-1-oxoisoindolin-4-yl)but-3-yn-1-yl)piperidin-1-yl)-1-oxopropan-2-yl)amino)-1,5-dioxopentan-2-yl)carbamoyl)-3-(methoxycarbonyl)-6-oxodecahydropyrrolo[1,2-a][1,5]diazocin-5-yl)carbamoyl)benzo[b]thiophen-5-yl)difluoromethyl) phosphonic acid], the DC50 in test [1] (setting [3]) was less than 250 nM; in test [2] (setting [4]) it was 250 nM.

`CC(C)(C)c1ccc(C[C@H](NC(=O)[C@H](CCC(N)=O)NC(=O)[C@@H]2CC[C@@H]3CCN(CC(F)F)C[C@H](NC(=O)c4cc5cc(C(F)(F)P(=O)(O)O)ccc5s4)C(=O)N32)C(=O)N2CCC(CCC#Cc3cccc4c3CN(C3CCC(=O)NC3=O)C4=O)CC2)cc1` (stereo partly drawn) [Cpd. No. 362, ((2-(((5S,8S,10aR)-8-(((2S)-5-amino-1-(((2S)-3-(4-(tert-butyl)phenyl)-1-(4-(4-(2-(2,6-dioxopiperidin-3-yl)-1-oxoisoindolin-4-yl)but-3-yn-1-yl)piperidin-1-yl)-1-oxopropan-2-yl)amino)-1,5-dioxopentan-2-yl)carbamoyl)-3-(2,2-difluoroethyl)-6-oxodecahydropyrrolo[1,2-a][1,5]diazocin-5-yl)carbamoyl)benzo[b]thiophen-5-yl)difluoromethyl) phosphonic acid]: the DC50 in test [1] (setting [3]) and in test [2] (setting [4]) was less than 250 nM throughout.
